Reference: patent US9963696B2, “Method for screening mutant microorganism overproducing target metabolite using synthetic suicide genetic circuit” (Korea University Research and Business Foundation, priority 2014, dated 2018)

Columns and labels:
[1] = tested on: FMN ribozyme; test: growth of yeast carrying the FMN suicide riboswitch with added or intracellularly produced FMN; type: cell-based, Saccharomyces cerevisiae
Source text: Using the same method as described in Example 1-1, a FMN ribozyme (Proc. Natl. Acad. Sci. USA Vol. 96, pp. 3584-3589, March 1999, “Engineering precision RNA molecular switches”)
Biochemistry was inserted into the 3′ UTR of the FCY1 gene (NC_001148.4). In order to examine whether the suicide riboswitch operates properly, an experiment for examining whether the growth rate of cells having the suicide riboswitch introduced therein changes depending on the concentration of FMN in the cells was performed.
Specifically, FMN was externally added to the culture medium.
In addition, the FMN1 gene was cloned into a p413GPD plasmid, which was then transformed into a strain having the FMN suicide riboswitch introduced therein so that FMN was produced in the cells. Also, the cells were treated with fluorocytosine. […] In addition, it could be seen that the absorbance at 660 nm was high due to the production of FMN (FIG. 6c).

[2] = tested on: glmS ribozyme; test: growth of yeast carrying the glmS suicide riboswitch with externally added GlcN in the presence of fluorocytosine; type: cell-based, Saccharomyces cerevisiae
Source text: The gene fragment to be inserted was transformed into Saccharomyces cerevisiae BY4742. In order to examine whether the suicide riboswitch was inserted into the gene of the yeast, a colony selected on an SD-URA medium (2% glucose, 0.67% yeast nitrogen base without amino acids, 0.77 g/L CSM-URA dropout mixture) plate was selected. As a result, it could be seen that the glmS ribozyme was inserted into the 3′UTR (untranslated region) of FCY1 locus in the BY4742 strain.
In addition, in order to examine whether the suicide riboswitch operates properly, whether the growth rate of cells having the suicide riboswitch introduced therein changes depending on the concentration of GlcN6P in the cells was examined. In the presence of fluorocytosine, glucosamine (GlcN) was externally added to the culture medium so that it was converted to GlcN6P by intracellular hexokinase.
A BY4742 FGU strain and other strains, which have a suicide riboswitch introduced therein, were cultured in minimal media. For culture of BY4742 FGU, SD-URA medium supplemented with 5 mg/L of fluorocytosine was used. At 2 days after seeding, absorbance was used. To screen the GFA1 mutant library, medium supplemented with 10 mg/L of fluorocytosine was used, and to screen the HAD phosphatase library, medium supplemented with 20 mg/L of fluorocytosine was used (FIG. 2c).

[3] = FMN produced in the cells from FMN1 on p413GPD plasmid, treated with fluorocytosine

Row | Compound | absorbance ([1]; FMN externally added to culture medium, increasing concentration) | absorbance at 660 nm [1, 3] | growth rate of the cells [1, 3] | growth rate of cells having the suicide riboswitch ([2]; GlcN externally added to culture medium, in the presence of fluorocytosine, increasing GlcN6P concentration) | absorbance at 660 nm ([2]; various concentrations of added GlcN)
1 | Cc1cc2nc3c(=O)[nH]c(=O)nc-3n(C[C@H](O)[C@H](O)[C@H](O)COP(=O)(O)O)c2cc1C [FMN, flavin mononucleotide] | the absorbance also increased | high | the growth rate of the cells was high |  | 
2 | N[C@H]1C(O)O[C@H](CO)[C@@H](O)[C@@H]1O (some centres unmarked) [GlcN, glucosamine] |  |  |  | the growth rate of the cells increased | changed depending on the concentration of GlcN
